Drawing on PubChem BioAssay AID228 (DTP/NCI, 2004), this text covers T/C for 16 compounds.

The assay concerns BDF1 mice, Friend leukemia sc, tumor weight T/C. The assay is described as follows: NCI In Vivo Anticancer Drug Screen. Data for tumor model Friend Virus Leukemia (Solid) (subcutaneous) in B6D2F1 (BDF1) mice. As to conditions: endpoint: mean tumor weight, higher = larger tumour. The method, then: The antitumor activity of compounds was measured in mice bearing transplantable tumors. Survival or tumor size were measured and the results are expressed as the measurement made in the treated group (T) divided by the measurement made in the vehicle treated control group (C). The tumor model used in this assay is Friend Virus Leukemia (Solid) (subcutaneous) in B6D2F1 (BDF1) mice

Where [1] appears, read: dose: 150.0 mg/kg/injection, schedule: Q01DX011 (sc), vehicle: steriod suspending solution.
[2] abbreviates: dose: 3.0 mg/kg/injection, schedule: Q01DX011 (ip), vehicle: carboxymethylcellulose (CMC).
Where [3] appears, read: dose: 6.0 mg/kg/injection, schedule: Q01DX011 (ip), vehicle: carboxymethylcellulose (CMC).
Where [4] appears, read: dose: 12.5 mg/kg/injection, schedule: Q01DX011 (ip), vehicle: carboxymethylcellulose (CMC).
Setting [5] is: dose: 12.5 mg/kg/injection, schedule: Q01DX011 (ip), vehicle: saline.
Setting [6] is: dose: 50.0 mg/kg/injection, schedule: Q01DX011 (ip), vehicle: carboxymethylcellulose (CMC).
Where [7] appears, read: dose: 25.0 mg/kg/injection, schedule: Q01DX011 (ip), vehicle: carboxymethylcellulose (CMC).
Where [8] appears, read: dose: 100.0 mg/kg/injection, schedule: Q01DX011 (ip), vehicle: carboxymethylcellulose (CMC).
Where [9] appears, read: dose: 125.0 mg/kg/injection, schedule: Q01DX011 (ip), vehicle: carboxymethylcellulose (CMC).
Setting [10] is: dose: 500.0 mg/kg/injection, schedule: Q01DX011 (ip), vehicle: carboxymethylcellulose (CMC).
[11] abbreviates: dose: 250.0 mg/kg/injection, schedule: Q01DX011 (ip), vehicle: carboxymethylcellulose (CMC).
The mark [12] stands for this setting: dose: 1000.0 mg/kg/injection, schedule: Q01DX011 (ip), vehicle: carboxymethylcellulose (CMC).

“And” between values parts separate entries of the source, which are not always exact repeats. Identical values can stand only once. Records with an inconclusive call do not appear.

As to `C[C@]12CC[C@@H]3c4ccc(O)cc4CC[C@H]3[C@@H]1CC[C@@H]2O`, the T/C is 74 % of control (dose: 1.0 mg/kg/injection, schedule: Q01DX011 (sc), vehicle: steriod suspending solution); 104 % of control (dose: 5.0 mg/kg/injection, schedule: Q01DX011 (sc), vehicle: steriod suspending solution); 71 % of control (dose: 10.0 mg/kg/injection, schedule: Q01DX011 (sc), vehicle: steriod suspending solution); 73 % of control (dose: 20.0 mg/kg/injection, schedule: Q01DX011 (sc), vehicle: steriod suspending solution); 61 % of control (dose: 40.0 mg/kg/injection, schedule: Q01DX011 (sc), vehicle: steriod suspending solution); 75 % of control (dose: 80.0 mg/kg/injection, schedule: Q01DX011 (sc), vehicle: steriod suspending solution). Also, the T/C by setting is: (dose: 100.0 mg/kg/injection, schedule: Q01DX011 (sc), vehicle: steriod suspending solution) 103 % of control; under setting [1], 106 % of control; (dose: 200.0 mg/kg/injection, schedule: Q01DX011 (sc), vehicle: steriod suspending solution) 101 % of control; (dose: 400.0 mg/kg/injection, schedule: Q01DX011 (sc), vehicle: steriod suspending solution) 110 % of control; (dose: 500.0 mg/kg/injection, schedule: Q01DX011 (sc), vehicle: steriod suspending solution) 86 % of control and 107 % of control.

As to `O=P1(N(CCCl)CCCl)NCCCO1` (configuration not stated), the T/C (dose: 0.5 mg/kg/injection, schedule: Q01DX015 (ip), vehicle: saline) was 183 % of control; the T/C (dose: 1.0 mg/kg/injection, schedule: Q01DX015 (ip), vehicle: saline) is 209 % of control; the T/C (dose: 1.5 mg/kg/injection, schedule: Q01DX011 (ip), vehicle: carboxymethylcellulose (CMC)) was 93 % of control; the T/C (dose: 2.0 mg/kg/injection, schedule: Q01DX015 (ip), vehicle: saline) is 224 % of control; the T/C under setting [2] was 81 % of control; the T/C (dose: 3.0 mg/kg/injection, schedule: Q01DX015 (ip), vehicle: saline) was 224 % of control. The T/C is, setting by setting: (dose: 4.0 mg/kg/injection, schedule: Q01DX015 (ip), vehicle: saline) 225 % of control; under setting [3], 89 % of control; (dose: 6.2 mg/kg/injection, schedule: Q01DX011 (ip), vehicle: saline) 117 % of control; (dose: 6.25 mg/kg/injection, schedule: Q01DX011 (ip), vehicle: carboxymethylcellulose (CMC)) 28 % of control; (dose: 7.12 mg/kg/injection, schedule: Q01DX011 (ip), vehicle: saline) 105 % of control; (dose: 8.0 mg/kg/injection, schedule: Q01DX011 (ip), vehicle: saline) 101 % of control. The T/C is, setting by setting: (dose: 12.0 mg/kg/injection, schedule: Q01DX011 (ip), vehicle: saline) 58 % of control; under setting [4], 37 % of control; under setting [5], 64 % of control; (dose: 14.25 mg/kg/injection, schedule: Q01DX011 (ip), vehicle: saline) 52 % of control; (dose: 23.0 mg/kg/injection, schedule: Q01DX011 (ip), vehicle: saline) 14 % of control; (dose: 25.0 mg/kg/injection, schedule: Q01DX011 (ip), vehicle: saline) 14 % of control. For the same compound, the T/C reads like this: (dose: 28.5 mg/kg/injection, schedule: Q01DX011 (ip), vehicle: saline) 32 % of control; (dose: 29.0 mg/kg/injection, schedule: Q01DX011 (ip), vehicle: saline) 6 % of control; under setting [6], 7 % of control and 10 % of control and 11 % of control.

For the compound `CC(=O)Nc1ccc2nc3ccc(NC(C)=O)cc3[n+](-c3ccccc3)c2c1`, the T/C by setting is: under setting [7], 101 % of control; under setting [6], 112 % of control; under setting [8], 92 % of control.

As for `Nc1ncnc2c1ccn2C1OC(CO)C(O)C1O` (configuration not stated), the T/C by setting is: (dose: 0.6 mg/kg/injection, schedule: Q01DX011 (ip), vehicle: carboxymethylcellulose (CMC)) 104 % of control; (dose: 1.25 mg/kg/injection, schedule: Q01DX011 (ip), vehicle: carboxymethylcellulose (CMC)) 72 % of control.

As to `Nc1ccc2ccccc2c1N=Nc1ccccc1`, the T/C by setting is: (dose: 62.5 mg/kg/injection, schedule: Q01DX011 (ip), vehicle: carboxymethylcellulose (CMC)) 66 % of control; under setting [9], 58 % of control; under setting [10], 25 % of control and 27 % of control.

In the case of `NNC(=O)c1ccncc1`, the T/C is, setting by setting: (dose: 15.0 mg/kg/injection, schedule: Q01DX011 (ip), vehicle: carboxymethylcellulose (CMC)) 80 % of control; (dose: 30.0 mg/kg/injection, schedule: Q01DX011 (ip), vehicle: carboxymethylcellulose (CMC)) 75 % of control; (dose: 121.0 mg/kg/injection, schedule: Q01DX011 (ip), vehicle: carboxymethylcellulose (CMC)) 55 % of control.

With `CC(=O)[C@H]1CC[C@H]2[C@@H]3CCC4=CC(=O)[C@H](C)C[C@]4(C)[C@@]3(F)[C@@H](O)C[C@]12C`, the T/C is, setting by setting: (dose: 9.5 mg/kg/injection, schedule: Q01DX011 (sc), vehicle: steriod suspending solution) 71 % of control; (dose: 19.0 mg/kg/injection, schedule: Q01DX011 (sc), vehicle: steriod suspending solution) 50 % of control; (dose: 75.0 mg/kg/injection, schedule: Q01DX011 (sc), vehicle: steriod suspending solution) 25 % of control and 42 % of control and 46 % of control; under setting [1], 28 % of control; (dose: 300.0 mg/kg/injection, schedule: Q01DX011 (sc), vehicle: steriod suspending solution) 19 % of control.

In the case of `O=CCC(O)C(O)C(O)CO` (configuration not stated), the T/C under setting [9] was 89 % of control, the T/C under setting [11] was 83 % of control, the T/C under setting [10] was 48 % of control and the T/C under setting [12] is 63 % of control.

On to `Cc1nc2nc(N)nc(N)c2nc1C`, for which the T/C (dose: 13.12 mg/kg/injection, schedule: Q01DX011 (ip), vehicle: carboxymethylcellulose (CMC)) was 103 % of control; the T/C (dose: 26.25 mg/kg/injection, schedule: Q01DX011 (ip), vehicle: carboxymethylcellulose (CMC)) is 89 % of control; the T/C (dose: 52.5 mg/kg/injection, schedule: Q01DX011 (ip), vehicle: carboxymethylcellulose (CMC)) is 52 % of control; the T/C (dose: 105.0 mg/kg/injection, schedule: Q01DX011 (ip), vehicle: carboxymethylcellulose (CMC)) was 61 % of control.

As for `CSc1ncnc2c1ncn2C1OC(CO)C(O)C1O` (configuration not stated), the T/C reads like this: (dose: 6.0 mg/kg/injection, schedule: Q01DX011 (ip), vehicle: saline) 105 % of control; (dose: 9.0 mg/kg/injection, schedule: Q01DX011 (ip), vehicle: saline) 121 % of control; under setting [5], 99 % of control; (dose: 15.0 mg/kg/injection, schedule: Q01DX011 (ip), vehicle: saline) 112 % of control.

Consider `O=C(O)C1(NO)CCCC1`, for which the T/C was 98 % of control under setting [4]; 78 % of control under setting [7]; 18 % of control and 34 % of control under setting [8].

In the case of `O=c1[nH]cc(F)c(=O)[nH]1`, the T/C runs as follows: under setting [2], 84 % of control; (dose: 3.3 mg/kg/injection, schedule: Q01DX011 (ip), vehicle: carboxymethylcellulose (CMC)) 101 % of control; under setting [3], 66 % of control and 44 % of control; (dose: 6.7 mg/kg/injection, schedule: Q01DX011 (ip), vehicle: carboxymethylcellulose (CMC)) 83 % of control; (dose: 13.5 mg/kg/injection, schedule: Q01DX011 (ip), vehicle: carboxymethylcellulose (CMC)) 69 % of control and 71 % of control; (dose: 18.0 mg/kg/injection, schedule: Q01DX011 (ip), vehicle: carboxymethylcellulose (CMC)) 93 % of control. Also, where the note is “dose: 27.0 mg/kg/injection, schedule: Q01DX011 (ip), vehicle: carboxymethylcellulose (CMC)”, the T/C is 22 % of control and 28 % of control.

On to `NC(C=O)C(O)C(O)C(O)CO` (configuration not stated), for which the T/C runs as follows: under setting [9], 102 % of control; under setting [11], 168 % of control; under setting [12], 115 % of control.

On to `Cc1nc(N2CC2)nc(N2CC2)c1[N+](=O)[O-]`, for which the T/C was 70 % of control (dose: 2.0 mg/kg/injection, schedule: Q01DX011 (ip), vehicle: carboxymethylcellulose (CMC)); 39 % of control under setting [2]; 41 % of control (dose: 4.0 mg/kg/injection, schedule: Q01DX011 (ip), vehicle: carboxymethylcellulose (CMC)); 63 % of control and 40 % of control under setting [3].

`Nc1nc(SCc2ccccc2)c2ncn(C3CCCC3)c2n1`: the T/C under setting [11] is 69 % of control, the T/C under setting [10] is 64 % of control and the T/C under setting [12] was 5 % of control.

In the case of `CCN(CC)CC(C)Nc1ccc(C)c2sc3ccccc3c(=O)c12` (configuration not stated), the T/C was 103 % of control under setting [7] and 60 % of control under setting [6].
